Experimental data from patent US20250009689A1, “GASTRO-RETENTIVE ORAL DOSAGE UNIT CONTAINING A LOCAL ANAESTHETIC” (OREXA B.V., priority 2021, published 2025).
Marks after values point to notes of the source that are not given here.

Assays:
[1] = test system: fundus strips (stomach muscularis); assay: Fundus strip length after acetylcholine-induced contraction; set-up: species or system domestic pigs; settings: for Strip length (as percentage of baseline): 70 mg/L + acetylcholine 10^-4 M, 37° C.
Protocol: Within the gastro-intestinal tract, local circuits play a role in the regulation of food intake and transport. Mechanical extension of the stomach as a result of food intake activates stretch receptors (neurons) which in turn induces satiety signals. The pharmacology of stretch receptors can be analyzed in fundus strip preparations. Fresh stomach tissue (0-1 h after slaughter) was collected from routinely slaughtered domestic pigs. The fundus region of the stomach was removed and washed with cold saline (0.9% NaCl) solution. Tissue was submerged in clean cold saline and transported to the laboratory (transport time 30 min.). The mucosa and submucosa were removed from the muscularis (muscle layer). The muscularis was cut along the longitudinal muscle fibres in strips of approximately 1 by 5 cm. The strips were incubated for 15 min in a 37° C. saline solution. Thereafter, fundus strips were placed vertically in a transparent container, kept at 37° C. Stretching was ensured by a 5 g weight at the bottom of the strip. Test solutions were added into the container. Acetylcholine (10^−4M) exposure was used to induce a contraction of the fundus tissue. Pictures were taken at 0, 5, 10, 15, 30, 45 and 60 minutes after the start of the experiment with a digital camera. The length of the strips was measured by a blinded assessor (unknowing of the treatment) using Photoshop software (Adobe).

[2] = test system: fundus strips (stomach muscularis); assay: Acid sensitivity of lidocaine: acetic acid pre-exposure, then fundus strip experiment; set-up: species or system domestic pigs
Protocol: Fresh stomach tissue (0-1 h after slaughter) was collected from routinely slaughtered domestic pigs. The fundus region of the stomach was removed and washed with cold saline (0.9% NaCl) solution. Tissue was submerged in clean cold saline and transported to the laboratory (transport time 30 min.).
The mucosa and submucosa were removed from the muscularis (muscle layer). The muscularis was cut along the longitudinal muscle fibres in strips of approximately 1 by 5 cm. The strips were incubated for 15 min in a 37° C. saline solution.
Thereafter, fundus strips were placed vertically in a transparent container, kept at 37° C. Stretching was ensured by a 5 g weight at the bottom of the strip. Test solutions were added into the container. Acetylcholine (10^−4M) exposure was used to induce a contraction of the fundus tissue. Pictures were taken at 0, 5, 10, 15, 30, 45 and 60 minutes after the start of the experiment with a digital camera. The length of the strips was measured by a blinded assessor (unknowing of the treatment) using Photoshop software (Adobe). Values were expressed as percentage of baseline (t=0 min).
The acid sensitivity of lidocaine was determined by exposing lidocaine to acetic acid (pH 2.5) for 1, 5 and 15 minutes before carrying out experiments on fundus strips, as in Example 5.

For `CCCCN1CCCCC1C(=O)Nc1c(C)cccc1C` (centres unmarked) [Bupivacaine, bupivacaine], the “Strip length (as percentage of baseline)” value ([1]; time 0 min (baseline)) was 100 percentage of baseline, the “Strip length (as percentage of baseline)” value ([1]; time 5 min) was 106.4*** percentage of baseline and the “Strip length (as percentage of baseline)” value ([1]; time 10 min) was 107.1*** percentage of baseline. For the same compound, the “Strip length (as percentage of baseline)” value ([1]; time 15 min) was 107.0*** percentage of baseline, the “Strip length (as percentage of baseline)” value ([1]; time 30 min) was 106.8*** percentage of baseline and the “Strip length (as percentage of baseline)” value ([1]; time 45 min) was 104.9*** percentage of baseline. The “Strip length (as percentage of baseline)” value ([1]; time 60 min) was 101.9*** percentage of baseline.

With `CN(C(=O)CN(CCO)CC(=O)N(C)C(C)(C)Cc1ccccc1)C(C)(C)Cc1ccccc1` [Oxethazaine] the “Strip length (as percentage of baseline)” value ([1]; time 0 min (baseline)) was 100 percentage of baseline, the “Strip length (as percentage of baseline)” value ([1]; time 5 min) was 104.5 percentage of baseline and the “Strip length (as percentage of baseline)” value ([1]; time 10 min) was 104.8* percentage of baseline. For the same compound, the “Strip length (as percentage of baseline)” value ([1]; time 15 min) was 104.3* percentage of baseline, the “Strip length (as percentage of baseline)” value ([1]; time 30 min) was 101.3 percentage of baseline and the “Strip length (as percentage of baseline)” value ([1]; time 45 min) was 98.2 percentage of baseline. For the same compound, the “Strip length (as percentage of baseline)” value ([1]; time 60 min) was 94.6 percentage of baseline.

In the case of `CCN(CC)CC(=O)Nc1c(C)cccc1C` [Lidocaine, lidocaine], the “Acid sensitivity (activity after exposure to low pH)” value ([2]; acetic acid pH 2.5, conclusion in words) is reported as “inactivated at low pH”, the “Activity on acetylcholine induced contraction after shortest acid exposure” value ([2]; acid exposure time 1 min, conclusion in words) is reported as “remains active” and the “Strip length (percentage of baseline)” value ([2]; lidocaine exposed 1 min. to acetic acid pH 2.5, time 0 min (baseline)) is reported as 100 percentage of baseline. For the same compound, the “Strip length (percentage of baseline)” value ([2]; lidocaine exposed 1 min. to acetic acid pH 2.5, time 5 min) was 114.9 percentage of baseline, the “Strip length (percentage of baseline)” value ([2]; lidocaine exposed 1 min. to acetic acid pH 2.5, time 10 min) was 115.8 percentage of baseline and the “Strip length (percentage of baseline)” value ([2]; lidocaine exposed 1 min. to acetic acid pH 2.5, time 15 min) was 116.7 percentage of baseline. The “Strip length (percentage of baseline)” value ([2]; lidocaine exposed 1 min. to acetic acid pH 2.5, time 30 min) was 116.2* percentage of baseline, the “Strip length (percentage of baseline)” value ([2]; lidocaine exposed 1 min. to acetic acid pH 2.5, time 45 min) was 115.0* percentage of baseline and the “Strip length (percentage of baseline)” value ([2]; lidocaine exposed 1 min. to acetic acid pH 2.5, time 60 min) was 113.6* percentage of baseline. The “Strip length (percentage of baseline)” value ([2]; lidocaine exposed 5 min. to acetic acid pH 2.5, time 0 min (baseline)) was 100 percentage of baseline, the “Strip length (percentage of baseline)” value ([2]; lidocaine exposed 5 min. to acetic acid pH 2.5, time 5 min) was 108.9 percentage of baseline and the “Strip length (percentage of baseline)” value ([2]; lidocaine exposed 5 min. to acetic acid pH 2.5, time 10 min) was 108.3 percentage of baseline. The “Strip length (percentage of baseline)” value ([2]; lidocaine exposed 5 min. to acetic acid pH 2.5, time 15 min) was 108.0 percentage of baseline, the “Strip length (percentage of baseline)” value ([2]; lidocaine exposed 5 min. to acetic acid pH 2.5, time 30 min) was 108.0 percentage of baseline and the “Strip length (percentage of baseline)” value ([2]; lidocaine exposed 5 min. to acetic acid pH 2.5, time 45 min) was 106.8 percentage of baseline. The “Strip length (percentage of baseline)” value ([2]; lidocaine exposed 5 min. to acetic acid pH 2.5, time 60 min) was 104.9 percentage of baseline, the “Strip length (percentage of baseline)” value ([2]; lidocaine exposed 15 min. to acetic acid pH 2.5, time 0 min (baseline)) was 100 percentage of baseline and the “Strip length (percentage of baseline)” value ([2]; lidocaine exposed 15 min. to acetic acid pH 2.5, time 5 min) was 106.3 percentage of baseline. For the same compound, the “Strip length (percentage of baseline)” value ([2]; lidocaine exposed 15 min. to acetic acid pH 2.5, time 10 min) was 105.9 percentage of baseline, the “Strip length (percentage of baseline)” value ([2]; lidocaine exposed 15 min. to acetic acid pH 2.5, time 15 min) was 105.2 percentage of baseline and the “Strip length (percentage of baseline)” value ([2]; lidocaine exposed 15 min. to acetic acid pH 2.5, time 30 min) was 102.4 percentage of baseline. The “Strip length (percentage of baseline)” value ([2]; lidocaine exposed 15 min. to acetic acid pH 2.5, time 45 min) was 97.6 percentage of baseline, the “Strip length (percentage of baseline)” value ([2]; lidocaine exposed 15 min. to acetic acid pH 2.5, time 60 min) was 93.8 percentage of baseline and the “Strip length (as percentage of baseline)” value ([1]; time 0 min (baseline)) was 100 percentage of baseline. The “Strip length (as percentage of baseline)” value ([1]; time 5 min) was 105.7** percentage of baseline, the “Strip length (as percentage of baseline)” value ([1]; time 10 min) was 103.6* percentage of baseline and the “Strip length (as percentage of baseline)” value ([1]; time 15 min) was 101.8* percentage of baseline. For the same compound, the “Strip length (as percentage of baseline)” value ([1]; time 30 min) was 99.5 percentage of baseline, the “Strip length (as percentage of baseline)” value ([1]; time 45 min) was 98.7 percentage of baseline and the “Strip length (as percentage of baseline)” value ([1]; time 60 min) was 98.0* percentage of baseline. The “Effect on contraction induced by acetylcholine” value ([1]; lidocaine 70 mg/L, conclusion in words) was “reversed”.

For `CCOC(=O)c1ccc(N)cc1` [Benzocaine, benzocaine], the “Strip length (as percentage of baseline)” value ([1]; time 0 min (baseline)) was 100 percentage of baseline, the “Strip length (as percentage of baseline)” value ([1]; time 5 min) was 102.7* percentage of baseline and the “Strip length (as percentage of baseline)” value ([1]; time 10 min) was 102.3* percentage of baseline. The “Strip length (as percentage of baseline)” value ([1]; time 15 min) was 102.4** percentage of baseline, the “Strip length (as percentage of baseline)” value ([1]; time 30 min) was 101.5* percentage of baseline and the “Strip length (as percentage of baseline)” value ([1]; time 45 min) was 101.3** percentage of baseline. The “Strip length (as percentage of baseline)” value ([1]; time 60 min) was 101.3** percentage of baseline.

In the case of `CCCNC(C)C(=O)Nc1ccccc1C` (centres unmarked) [Prilocaine, prilocaine], the “Strip length (as percentage of baseline)” value ([1]; time 0 min (baseline)) is reported as 100 percentage of baseline, the “Strip length (as percentage of baseline)” value ([1]; time 5 min) is reported as 105.1* percentage of baseline and the “Strip length (as percentage of baseline)” value ([1]; time 10 min) is reported as 105.8** percentage of baseline. For the same compound, the “Strip length (as percentage of baseline)” value ([1]; time 15 min) was 106.2** percentage of baseline, the “Strip length (as percentage of baseline)” value ([1]; time 30 min) was 106.3** percentage of baseline and the “Strip length (as percentage of baseline)” value ([1]; time 45 min) was 104.1* percentage of baseline. The “Strip length (as percentage of baseline)” value ([1]; time 60 min) was 100.2* percentage of baseline.
